The test concerns SKOV3 carboplatin-resistant cancers. Description: SKOV3CRLuc subcutaneous xenograft. Format: in vivo, athymic nu/nu mice. Conditions: platinum-resistant mouse tumor model.

Procedure: [MUT] and SKOV3CRLuc cells were injected subcutaneously into the athymic nu/nu mice (3×10^6, n=8 for each group). Parental SKOV3Luc cells were used as a negative control. Mice were intraperitoneally (i.p.) injected with [MUT] (red, 2.5 mg/kg/injection) or DMSO (red arrows) using a 3 days-on 4-days off protocol. Carboplatin (30 mg/kg/injection) was administrated i.p. every other day (green arrows). (B) Tumor volume was measured every other day for 25 to 40 days using a caliper, and luminescence activity was evaluated weekly. (C) Endpoint tumor volumes of [MUT], SKOV3Luc, and SKOV3CRLuc xenografts treated with the indicated drug or drug combination. Student's t-test. (D) Representative bioluminescence images of tumor burden in SKOV3CRLuc-innoculated mice treated with indicated drug. Images captured by the IVIS Spectrum at day 35. […] In vivo bioluminescence images were taken at the same time using the IVIS Spectrum. […] We tested the anti-tumor potency of [MUT]

`N.N.O=C([O-])C1(C(=O)[O-])CCC1.[Pt+2]` [carboplatin]: the “anti-tumor potency (tumor growth)” value is “relatively ineffective”.

These data come from patent US10800742B2, “Small molecule compounds targeting PBX1 transcriptional complex” (THE JOHNS HOPKINS UNIVERSITY, priority 2015, dated 2020).
